{"source": "patent US20100151039A1", "about": "“SKIN MOISTURIZING AGENT FOR ORAL INTAKE AND FUNCTIONAL FOODS AND DRINKS” (CALPIS CO., LTD., priority 2003, published 2010)", "key": {"filaggrin mRNA": {"test_system": "filaggrin mRNA", "experiment": "Ability to promote synthesis of filaggrin: RT-PCR of filaggrin mRNA in normal human epidermic cells", "conditions": "0.63 v/v % in medium, 24 hours; relative value, control = 100, standardized to cyclophilin mRNA", "procedure": "(§1) A 35 mm culture dish was seeded with the epidermic cells at a cell concentration of 5×10^5 cells per dish, and subjected to culture for 24 hours.\n(§2) (2) After the culture, the cells were washed with PBS (−), and lysed with 500 μl, per dish of TRIzol reagent (trade name, manufactured by Gibco BRL). 100 μL per dish of chloroform was added and mixed thoroughly. The supernatant aqueous phase was recovered by centrifugation, and RNAs were precipitated with 2-propanol to obtain the total RNAs. The obtained total RNAs were washed with 75% cold ethanol, and dissolved in diethyl pyrocarbonate (DEPC)-treated water.\n(§3) (3) 1 μg of the RNAs dissolved in DEPC-treated water was subjected to RT-PCR using One step RT-PCR kit (trade name, manufactured by Qiagen) in accordance with its protocol under the conditions and with the primers shown in Table 2, to reverse transcript and amplify the cDNA corresponding to serine palmitoyl transferase (SPT) mRNA, filaggrin mRNA, or cyclophilin RNA.\n(§4) (4) After the reaction, the reaction product was fractionated by 1% agarose gel electrophoresis. The electrophoresis gel was stained with ethidium bromide, and photographed under UV irradiation on a transilluminator, to determine the band intensity.\nThe test was conducted twice."}, "[1]": {"test_system": "serine palmitoyl transferase (SPT) mRNA", "experiment": "Ability to promote synthesis of SPT: RT-PCR of SPT mRNA in normal human epidermic cells", "conditions": "0.63 v/v % in medium, 24 hours; relative value, control = 100, standardized to cyclophilin mRNA", "procedure": "as §1, §2, §3, §4\nThe test was conducted twice."}}, "data": [{"smiles": "CC(O)C(=O)O", "note": "(stereo not shown) [lactic acid]", "values": [{"measurement": "Effect on expression of filaggrin mRNA of normal epidermic cells, 1st Test", "setting": "filaggrin mRNA", "result": 15}, {"measurement": "Effect on expression of filaggrin mRNA of normal epidermic cells, 2nd Test", "setting": "filaggrin mRNA", "result": 132}, {"measurement": "Effect on expression of SPT mRNA of normal human epidermic cells, 1st Test", "setting": "[1]", "result": 91}, {"measurement": "Effect on expression of SPT mRNA of normal human epidermic cells, 2nd Test", "setting": "[1]", "result": 111}]}]}
